# Measured values published in patent US9358217B2, “Methods for reducing triglyceride, total cholesterol and low density lipoprotein blood levels” (MediciNova, Inc., priority 2013, dated 2016).
# Key:
# Format in all cases: in vivo
# [1] = test system: triglyceride blood levels; experiment: Triglyceride blood levels in human subjects upon MN-001 administration
# Procedure: Human subjects were administered various daily amounts of MN-001 and placebo and their triglyceride blood levels (mg/deciliter or dl) measured at various time points. […] As to the “week 14” time point in Table 1-D, it provides triglyceride levels of follow-up patients after MN-001 administration was stopped at 12 weeks.
# [2] = test system: total cholesterol blood levels; experiment: Total cholesterol blood levels in human subjects upon MN-001 administration
# Procedure: Human subjects were administered various daily amounts of MN-001 and placebo and their total cholesterol blood levels (mg/dl) measured at various time points.
# [3] = test system: LDL blood levels; experiment: Total LDL blood levels in human subjects upon MN-001 administration
# Procedure: Human subjects were administered various daily amounts of MN-001 and placebo and their total LDL blood levels (mg/dl) measured at various time points.
# [4] = test system: blood levels of HDL; experiment: Blood levels of HDL upon administration of MN-001; settings: human subjects
# [5] = human subjects, various daily amounts, with certain exceptions
smiles,measurement,setting,value
CCCc1c(SCCCOc2ccc(C(C)=O)c(OCCCC(=O)O)c2CCC)ccc(C(C)=O)c1O [MN-001],mean triglyceride blood level,"[1]; Table 1-A Asthma Subjects, 500 mg tid (N = 36), Screening",109.5 mg/dL
same,mean triglyceride blood level,"[1]; Table 1-A Asthma Subjects, 500 mg tid (N = 36), Week 4",91.6 mg/dL
same,mean triglyceride blood level,"[1]; Table 1-A Asthma Subjects, 750 mg bid (N = 36), Screening",125.5 mg/dL
same,mean triglyceride blood level,"[1]; Table 1-A Asthma Subjects, 750 mg bid (N = 36), Week 4",98.5 mg/dL
same,mean triglyceride blood level,"[1]; Table 1-A Asthma Subjects, 750 mg qd (N = 36), Screening",112.2 mg/dL
same,mean triglyceride blood level,"[1]; Table 1-A Asthma Subjects, 750 mg qd (N = 36), Week 4",117.2 mg/dL
same,mean triglyceride blood level,"[1]; Table 1-B Interstitial Cystitis Subjects, 500 mg bid (N = 106), Baseline",135.7 mg/dL
same,mean triglyceride blood level,"[1]; Table 1-B Interstitial Cystitis Subjects, 500 mg bid (N = 106), Week 4",106.7 mg/dL
same,mean triglyceride blood level,"[1]; Table 1-B Interstitial Cystitis Subjects, 500 mg bid (N = 106), Week 8",110.7 mg/dL
same,mean triglyceride blood level,"[1]; Table 1-B Interstitial Cystitis Subjects, 500 mg qd (N = 94), Baseline",136.1 mg/dL
same,mean triglyceride blood level,"[1]; Table 1-B Interstitial Cystitis Subjects, 500 mg qd (N = 94), Week 4",109.5 mg/dL
same,mean triglyceride blood level,"[1]; Table 1-B Interstitial Cystitis Subjects, 500 mg qd (N = 94), Week 8",124.7 mg/dL
same,mean triglyceride blood level,"[1]; Table 1-C Healthy Subjects, 1500 mg/day × 10 days (N = 11), Day 11",87.5 mg/dL
same,mean triglyceride blood level,"[1]; Table 1-C Healthy Subjects, 1500 mg/day × 10 days (N = 11), Screening",145.4 mg/dL
same,mean triglyceride blood level,"[1]; Table 1-D Asthma Subjects, 500 mg tid (N = 54), Baseline",159.4 mg/dL
same,mean triglyceride blood level,"[1]; Table 1-D Asthma Subjects, 500 mg tid (N = 54), Week 4",112.5 mg/dL
same,mean triglyceride blood level,"[1]; Table 1-D Asthma Subjects, 500 mg tid (N = 54), Week 8",132.4 mg/dL
same,mean triglyceride blood level,"[1]; Table 1-D Asthma Subjects, 500 mg tid (N = 54), Week 12",147.7 mg/dL
same,mean triglyceride blood level,"[1]; Table 1-D Asthma Subjects, 500 mg tid (N = 54), Week 14 (follow-up, administration stopped at 12 weeks)",134.1 mg/dL
same,mean triglyceride blood level,"[1]; Table 1-D Asthma Subjects, 750 mg bid (N = 53), Baseline",117.0 mg/dL
same,mean triglyceride blood level,"[1]; Table 1-D Asthma Subjects, 750 mg bid (N = 53), Week 4",94.1 mg/dL
same,mean triglyceride blood level,"[1]; Table 1-D Asthma Subjects, 750 mg bid (N = 53), Week 8",101.4 mg/dL
same,mean triglyceride blood level,"[1]; Table 1-D Asthma Subjects, 750 mg bid (N = 53), Week 12",114.0 mg/dL
same,mean triglyceride blood level,"[1]; Table 1-D Asthma Subjects, 750 mg bid (N = 53), Week 14 (follow-up, administration stopped at 12 weeks)",104.6 mg/dL
same,triglyceride levels during follow-up period compared with a control group,"[1]; Table 1-D, week 14, after administration was stopped at 12 weeks",continued their downward trend
same,effect on mean triglyceride blood levels compared to control subjects (placebo),[1]; [5],substantial lowering
same,mean total cholesterol blood level,"[2]; Table 2-A Asthma Subjects, 500 mg tid (N = 36), Screening",193.5 mg/dL
same,mean total cholesterol blood level,"[2]; Table 2-A Asthma Subjects, 500 mg tid (N = 36), Week 4",183.1 mg/dL
same,mean total cholesterol blood level,"[2]; Table 2-A Asthma Subjects, 750 mg bid (N = 36), Screening",180.5 mg/dL
same,mean total cholesterol blood level,"[2]; Table 2-A Asthma Subjects, 750 mg bid (N = 36), Week 4",181.6 mg/dL
same,mean total cholesterol blood level,"[2]; Table 2-A Asthma Subjects, 750 mg qd (N = 36), Screening",191.5 mg/dL
same,mean total cholesterol blood level,"[2]; Table 2-A Asthma Subjects, 750 mg qd (N = 36), Week 4",180.6 mg/dL
same,mean total cholesterol blood level,"[2]; Table 2-B Interstitial Cystitis Subjects, 500 mg bid (N = 106), Baseline",174.5 mg/dL
same,mean total cholesterol blood level,"[2]; Table 2-B Interstitial Cystitis Subjects, 500 mg bid (N = 106), Week 4",169.8 mg/dL
same,mean total cholesterol blood level,"[2]; Table 2-B Interstitial Cystitis Subjects, 500 mg bid (N = 106), Week 8",168.7 mg/dL
same,mean total cholesterol blood level,"[2]; Table 2-B Interstitial Cystitis Subjects, 500 mg qd (N = 94), Baseline",173.8 mg/dL
same,mean total cholesterol blood level,"[2]; Table 2-B Interstitial Cystitis Subjects, 500 mg qd (N = 94), Week 4",171.5 mg/dL
same,mean total cholesterol blood level,"[2]; Table 2-B Interstitial Cystitis Subjects, 500 mg qd (N = 94), Week 8",170.5 mg/dL
same,mean total cholesterol blood level,"[2]; Table 2-C Healthy Subjects, 1500 mg/day × 10 days (N = 11), Day 11",167.8 mg/dL
same,mean total cholesterol blood level,"[2]; Table 2-C Healthy Subjects, 1500 mg/day × 10 days (N = 11), Screening",176.9 mg/dL
same,mean total cholesterol blood level,"[2]; Table 2-D Asthma Subjects, 500 mg tid (N = 54), Baseline",182.5 mg/dL
same,mean total cholesterol blood level,"[2]; Table 2-D Asthma Subjects, 500 mg tid (N = 54), Week 4",179.3 mg/dL
same,mean total cholesterol blood level,"[2]; Table 2-D Asthma Subjects, 500 mg tid (N = 54), Week 8",176.9 mg/dL
same,mean total cholesterol blood level,"[2]; Table 2-D Asthma Subjects, 500 mg tid (N = 54), Week 12",169.6 mg/dL
same,mean total cholesterol blood level,"[2]; Table 2-D Asthma Subjects, 500 mg tid (N = 54), Week 14 (follow-up, administration stopped at 12 weeks)",182.8 mg/dL
same,mean total cholesterol blood level,"[2]; Table 2-D Asthma Subjects, 750 mg bid (N = 53), Baseline",185.4 mg/dL
same,mean total cholesterol blood level,"[2]; Table 2-D Asthma Subjects, 750 mg bid (N = 53), Week 4",181.6 mg/dL
same,mean total cholesterol blood level,"[2]; Table 2-D Asthma Subjects, 750 mg bid (N = 53), Week 8",187.3 mg/dL
same,mean total cholesterol blood level,"[2]; Table 2-D Asthma Subjects, 750 mg bid (N = 53), Week 12",192.4 mg/dL
same,mean total cholesterol blood level,"[2]; Table 2-D Asthma Subjects, 750 mg bid (N = 53), Week 14 (follow-up, administration stopped at 12 weeks)",182.6 mg/dL
same,effect on mean total cholesterol blood levels compared to control subjects (placebo),[2]; [5],substantial lowering
same,mean LDL blood level,"[3]; Table 3-A Asthma Subjects, 500 mg tid (N = 36), Screening",113.8 mg/dL
same,mean LDL blood level,"[3]; Table 3-A Asthma Subjects, 500 mg tid (N = 36), Week 4",105.4 mg/dL
same,mean LDL blood level,"[3]; Table 3-A Asthma Subjects, 750 mg bid (N = 36), Screening",100.3 mg/dL
same,mean LDL blood level,"[3]; Table 3-A Asthma Subjects, 750 mg bid (N = 36), Week 4",104.7 mg/dL
same,mean LDL blood level,"[3]; Table 3-A Asthma Subjects, 750 mg qd (N = 36), Screening",115.7 mg/dL
same,mean LDL blood level,"[3]; Table 3-A Asthma Subjects, 750 mg qd (N = 36), Week 4",106.9 mg/dL
same,mean LDL blood level,"[3]; Table 3-B Interstitial Cystitis Subjects, 500 mg bid (N = 106), Baseline",62.6 mg/dL
same,mean LDL blood level,"[3]; Table 3-B Interstitial Cystitis Subjects, 500 mg bid (N = 106), Week 4",54.5 mg/dL
same,mean LDL blood level,"[3]; Table 3-B Interstitial Cystitis Subjects, 500 mg bid (N = 106), Week 8",52.2 mg/dL
same,mean LDL blood level,"[3]; Table 3-B Interstitial Cystitis Subjects, 500 mg qd (N = 94), Baseline",65.8 mg/dL
same,mean LDL blood level,"[3]; Table 3-B Interstitial Cystitis Subjects, 500 mg qd (N = 94), Week 4",60.1 mg/dL
same,mean LDL blood level,"[3]; Table 3-B Interstitial Cystitis Subjects, 500 mg qd (N = 94), Week 8",55.5 mg/dL
same,mean LDL blood level,"[3]; Table 3-C Healthy Subjects, 1500 mg/day × 10 days (N = 11), Day 11",103.0 mg/dL
same,mean LDL blood level,"[3]; Table 3-C Healthy Subjects, 1500 mg/day × 10 days (N = 11), Screening",99.1 mg/dL
same,mean LDL blood level,"[3]; Table 3-D Asthma Subjects, 500 mg tid (N = 54), Baseline",100.2 mg/dL
same,mean LDL blood level,"[3]; Table 3-D Asthma Subjects, 500 mg tid (N = 54), Week 4",99.5 mg/dL
same,mean LDL blood level,"[3]; Table 3-D Asthma Subjects, 500 mg tid (N = 54), Week 8",99.1 mg/dL
same,mean LDL blood level,"[3]; Table 3-D Asthma Subjects, 500 mg tid (N = 54), Week 12",92.5 mg/dL
same,mean LDL blood level,"[3]; Table 3-D Asthma Subjects, 500 mg tid (N = 54), Week 14 (follow-up, administration stopped at 12 weeks)",102.6 mg/dL
same,mean LDL blood level,"[3]; Table 3-D Asthma Subjects, 750 mg bid (N = 53), Baseline",106.3 mg/dL
same,mean LDL blood level,"[3]; Table 3-D Asthma Subjects, 750 mg bid (N = 53), Week 4",102.3 mg/dL
same,mean LDL blood level,"[3]; Table 3-D Asthma Subjects, 750 mg bid (N = 53), Week 8",106.6 mg/dL
same,mean LDL blood level,"[3]; Table 3-D Asthma Subjects, 750 mg bid (N = 53), Week 12",110.9 mg/dL
same,mean LDL blood level,"[3]; Table 3-D Asthma Subjects, 750 mg bid (N = 53), Week 14 (follow-up, administration stopped at 12 weeks)",103.6 mg/dL
same,effect on mean LDL blood levels compared to control subjects (placebo),[3]; [5],substantial lowering
same,effect on blood levels of HDL,[4],"not altered substantially, if at all"
